The results in this text go back to a melting point compilation (Tetko et al.; mined from patent text by program, amines drawn as free bases though some values may be those of a salt).

For `O=C(Nc1cc(Cl)ccc1S(=O)(=O)c1ccc(Cl)cc1)N[C@@H](Cc1ccc(NC(=O)c2c(Cl)cccc2Cl)cc1)C(=O)O`, the melting point amounted to 239 °C. Next, `CCC(=O)c1cccc2cccc(O)c12`: 114 to 117 °C; `CC(C(=O)O)c1ccc2c(c1)CC(=O)c1ccccc1S2` (configuration not stated): 130 to 132 °C; `Cc1cc(-c2ccc(Cl)c(Cl)c2)nc(-n2cnc(-c3ncc(S(N)(=O)=O)s3)c2)n1`: 230 °C. In the case of `CCC1(c2ccccc2)Cc2cc(OC)c(Cl)c(Cl)c2C1=O` (configuration not stated) it was 139 to 141 °C; in that of `C(#CCN(c1ccccc1)c1ccccc1)CN(c1ccccc1)c1ccccc1`, 84 to 86 °C; in that of `O=c1oc(-c2ccc(OCc3ccc4ccccc4c3)cc2)cc(O)c1SCCc1ccccc1`, 152 to 154 °C.

`Cc1cc(C(=O)O)ccc1OCCNC(=O)C1Cc2ccccc2N1S(=O)(=O)c1ccc(-c2cccc(C(F)(F)F)c2)cc1` (configuration not stated) registered a melting point of 102 to 108 °C. Molecule `CC(=O)c1cc(NC(=O)OC(C)(C)C)ccc1O` registered a melting point of 107 to 108 °C. In the case of `C=Cc1ccc(ON2C(=O)c3ccccc3C2=O)cc1` it was 129 to 131 °C; in that of `COc1cc2c(c(C)c1OC)CC(C)CC2=O` (configuration not stated), 106 to 108 °C. Next, `FC(F)(F)c1n[nH]c2c1nc(-c1ccccc1)c1ccccc12`: 264 to 265 °C; `CCCN(CCCNc1c(Cl)cn[nH]c1=O)CCOc1cccc2c1OCCO2`: 87 to 89 °C; `CCNC(=O)Nc1cc(-c2c(-c3ccc(F)c(C)c3)nc3ccc(NC)nn23)ccn1`: 263 to 264 °C. In the case of `CCN(CC)c1ccc(Nc2nc(N)c(C(=O)c3ccccc3[N+](=O)[O-])s2)cc1` it was 202 to 205 °C; in that of `CSc1cccc(CNC(=O)c2nc3scc(COCc4ccc(C(=O)O)cc4)c3c(=O)[nH]2)c1`, 252 to 254 °C. As to `N#CCc1cccc(-c2onc3ccccc23)c1`, the melting point lay within 122 to 124 °C. In the case of `Cc1cc(O)c2c(c1C)C(=O)CC2` it was 171 to 173 °C; in that of `Cc1cc2n(c1)Cc1cc(Cl)ccc1N=C2N1CCN(CC(C)(C)C(=O)O)CC1`, 246 °C; in that of `CC(C)C(=O)OC[C@@]1(N=[N+]=[N-])O[C@@H](n2ccc(N)nc2=O)[C@@H](OC(=O)C(C)C)[C@@H]1OC(=O)C(C)C`, 167 to 169 °C. In the case of `Cc1cc(C)n(C(c2ccccc2)(c2ccccc2)c2ccccc2Cl)n1` it was 195 to 197 °C; in that of `Cc1nc2c(O[C@@H]3c4ccccc4C[C@H]3O)cc(C(=O)NC3CC3)cc2n1C` (relative stereo), 148 to 149 °C. Next, `O=C1NC(=O)C(CC(=O)N2CCN(c3cccc(CNC(=O)c4nc5ccccc5c(=O)[nH]4)c3)CC2)N1` (configuration not stated): 280 to 282 °C; `CN(C)C(=O)Nc1ccc(SCCc2ccccc2)c(Cl)c1`: 133 to 134 °C. In turn, `Clc1nc(-c2ccccc2)no1` registered a melting point of 40 to 42 °C. Next, `FC(F)(F)c1ccc(C=Cc2nc(CNc3ccc(CCCCn4ccnn4)cc3)co2)cc1`: 113 to 115 °C; `CC(=O)Nn1cnc2c(Br)csc2c1=O`: 273 °C; `COc1cc2c(cc1OC)C1CCC(O)CC1N=C2c1ccc(OCC2CC2)c(OCC2CC2)c1` (configuration not stated): 172 to 174 °C.

`CC/C(=C(/C)C#N)c1cccc(O)c1` showed a melting point of 80 to 83 °C. In the case of `CC(C)(C)OC(=O)CCc1ccnc(-c2nc(=O)c3ccc(Cl)cc3s2)c1` it was 152 °C. In the case of `O=C1NC(=O)C(Nc2cccc(CCOCc3ccc4ccccc4n3)c2)S1` (configuration not stated) it was 167 to 168 °C; in that of `CCCCn1ccc(C(=O)c2cc(C(C)(C)C)c(O)c(C(C)(C)C)c2)c1`, 101 to 103 °C; in that of `Cc1ccc([N+](=O)[O-])cc1Nc1ccc(C(F)(F)F)cn1`, 103 to 105 °C. Next, `O=C1C(=O)N(Cc2ccccc2F)c2ccc(S(=O)(=O)N3CC[C@H]3COc3ccccc3)cc21`: 147 to 148 °C; `CCOC(=O)/C=C/c1cc(OCc2ccc(OCc3nc(-c4ccccc4)oc3C)c(OC)c2)nn1-c1ccccc1`: 121 to 122 °C. On to `COC(=O)c1cc(-c2ccc(C(F)(F)F)cc2)oc1COC(C)=O`, for which the melting point was in the range of 60 to 61 °C. In the case of `Cc1nsc(OCC(Cl)(Cl)Cl)c1S(=O)(=O)Cl` it was 71 to 74 °C; in that of `CC(C)(CO)NC(=O)c1cc(F)c(F)cc1F`, 114 to 116 °C. Next, `Cc1ccc(F)cc1C1CC(=O)c2c(C)ccnc2C1` (configuration not stated): 113 to 114 °C; `NC(=O)ON(Cc1ccccc1)Cc1ccccc1`: 127 to 129 °C; `Cc1ccc(S(=O)(=O)OCC(=O)CC2CCC(C)CC2)cc1` (configuration not stated): 42 to 43.5 °C. In the case of `O=C(c1cccs1)c1cnn2c(-c3cccc(NCC4CCCCC4)c3)ccnc12` it was 101 to 104 °C; in that of `CCC(CC)COc1c(C)nc(N)nc1N`, 142 to 143 °C. Regarding `CN(C)S(=O)(=O)c1cc2c(c(Cl)c1Cl)OC(CCl)C2` (configuration not stated), the melting point was in the range of 77 to 78 °C. In the case of `FC(F)(F)Oc1ccc(C2NCCc3c2[nH]c2ccccc32)cc1` (configuration not stated) it was 68 to 69 °C; in that of `Cc1cc(C)cc(C(=O)N(C)[C@H](Cc2ccccc2)C(=O)N[C@@H](Cc2c[nH]c3ccccc23)C(=O)O)c1`, 91 to 94 °C.

With `NS(=O)(=O)c1cccc(NC(=O)c2cnn3c(C(F)F)cc(-c4ccc(Cl)cc4)nc23)c1`, the melting point is 278 °C.

Molecule `CCCN(C(C)C)[C@H]1COc2c(F)ccc(C(N)=O)c2C1` yielded a melting point of 139 to 140 °C. Next, `C=Cc1cc(C)cc(C)c1CC(=O)N(C)C1(C#N)CCN(OC)CC1`: 148 to 151 °C; `COc1c(Cl)cc(Cn2c(S)nc3ccccc32)cc1Cl`: 217 to 218 °C.

In the case of `CCc1nnc2cc(C)c(-c3ccc(C(N)=O)cc3)nn12`, the melting point was in the range of 210 to 213 °C. In the case of `COc1cc([N+](=O)[O-])c2nccc(C)c2c1OCCCCCc1ccco1` it was 47 to 49 °C.

Take `CSc1ccc(O)nn1`: the melting point was 119 °C.

Regarding `COc1cc(NC(=O)OC(C)(C)C)ccc1OCCCN1CCN(c2ccccc2)CC1`, the melting point fell in the range of 125 to 126 °C. Next, `O=C(NC1CCCCC1)N[C@H]1C[C@H](C(=O)O)Nc2cc(Cl)cc(Cl)c21` (relative stereo): 217 to 219 °C; `CNC1c2c(O)c(C)cc(C)c2C2CCCCC21` (configuration not stated): 110 to 111 °C. Molecule `N#Cc1cc(Sc2ccc3ccccc3c2)ccc1[N+](=O)[O-]` had a melting point of 139 to 140 °C.

For `N#CCc1cccc2c(-c3ccccc3)onc12`, the melting point is 125 to 138 °C. In the case of `CCOP(=O)(OCC)C(C)c1cn(C(c2ccccc2)(c2ccccc2)c2ccccc2)cn1` (configuration not stated) it was 124 to 126 °C. Next, `CC(C)C(NC(=O)Nc1ccc(C(=O)NCC(=O)OCc2ccccc2)cc1)C(=O)N1CCCC1C(=O)NC(C(=O)C(F)(F)F)C(C)C` (mixture of isomers): 65 to 70 °C.

The molecule `CCS[C@@H]1c2ccn3c(C)c(C)nc3c2N[C@H](c2ccccc2)[C@H]1O` showed a melting point of 220 to 223 °C. Molecule `Cc1cc(O)cc2c1CCC2(C)C` yielded a melting point of 80 to 81 °C.
